Laboratory results as given in US6159746A, “Solid phase immunoassay to detect inhibitors of proteolytic enzymes” (Gruppo Lepetit S.p.A., priority 1994, dated 2000).
Read-outs that look alike come from different tables or passages of the source. Square brackets hold non-standard residues; d marks the D form. Peptide text beside a SMILES is read from it. * marks the point of attachment. Sta = CC(C)C[C@H](N)[C@@H](O)CC(=O)O; Isovaleryl = CC(C)CC(=O)*

Legend:
Type in all cases: biochemical
Hiv-1 protease = biological target: T1, Hiv-1 protease (Human immunodeficiency virus type 1 group M subtype B, UniProt P04585); assay: Inhibition of Hiv-1 protease, solid phase tubulin immunoassay, Table I
T1 construct: Hiv-1 protease
Experimental: (§1) Covalent linkage of tubulin to the support
(§2) 0.150 ml of a freshly made phosfate buffered saline (PBS) solution (pH=7.3) containing 0.03 mg of bis(sulfo-succinidimyl)suberate (BS3, Pierce, Rockford, Ill.) are dispensed into each well of a cova-link 96 wells plate (Nunc). The solution is left in the wells at room temperature for 90 minutes, afterwards the wells are washed three times with PBS solution.
(§3) Afterwards, 0,150 ml of a PBS solution containing 5% glycine (v/v) and 0.75 μg of tubulin obtained according to Example 1 is added to each well. After 90 minutes at room temperature, the solution is removed and 0.3 ml of a 5% glycine PBS solution are added. After about 2 hours, the wells are washed with fresh PBS solution.
(§4) Determination of the anti-proteolytic activity
(§5) 0.15 ml of a solution containing a proteolytic activity and a known inhibitor (concentration from 0.01 to 10 μg/ml) are added to the wells treated according to Example 2 or Example 2a and incubated for 2 hours at 37° C. […]
(§6) After three rapid washing with PBS solution (pH=7.3), the inhibitory activity is determined as follows:
(§7) A YL 1/2 antibody solution (Amersham) diluted 1:1000 in PBS buffer is added to each well and incubated for 1 hour at room temperature. […] After 5-10 minutes, the reaction is stopped with H2 SO4 4 M. The colour is detected on a Titertek Multiscan MCC340-HK spectrophotometer reading the absorbance at 492 nm.

Subtilisin = assay: Inhibition of subtilisin, solid phase tubulin immunoassay, Table I; settings: subtilisin 0.25 μg/ml, 20 mM TRIS pH 7.4, 2 hours at 37° C.; inhibitor 0.01 to 10 μg/ml
Experimental: as §1, §2, §3, §4
(§8) 0.15 ml of a solution containing a proteolytic activity and a known inhibitor (concentration from 0.01 to 10 μg/ml) are added to the wells treated according to Example 2 or Example 2a and incubated for 2 hours at 37° C.
(§9) The employed proteolytic enzymes are:
(§10) Serine class: trypsin (0.25 μg/ml), subtilisin (0.25 μg/ml), elastase (0.5 μg/ml) and cathepsin G (5 μg/ml), in a 20 mM solution of Tris-hydroxymethyl-aminomethanchloride (TRIS) (pH=7.4);
(§11) Table I reports the concentration of these inhibitors which determines a 50% inhibition of the above proteases.
as §6
(§12) A YL 1/2 antibody solution (Amersham) diluted 1:1000 in PBS buffer is added to each well and incubated for 1 hour at room temperature. After three rapid washing with PBS solution, an anti-rat peroxydated antibody solution (Amersham) diluted 1:1000 in PBS buffer is added to each well and incubated for 1 hour at room temperature. After 10-15 minutes, the colour is developed with a 0.5 M citric acid solution (pH=5.5) containing 1 mg/ml of o-phenylendiamine. After 5-10 minutes, the reaction is stopped with H2 SO4 4 M. The colour is detected on a Titertek Multiscan MCC340-HK spectrophotometer reading the absorbance at 492 nm.

Elastase = assay: Inhibition of elastase, solid phase tubulin immunoassay, Table I; settings: elastase 0.5 μg/ml, 20 mM TRIS pH 7.4, 2 hours at 37° C.; inhibitor 0.01 to 10 μg/ml
Experimental: as §1, §2, §3, §4, §8, §9, §10, §11, §6, §12

Pepsin = Pepsin (Sus scrofa, UniProt P00791); assay: Inhibition of pepsin, solid phase tubulin immunoassay, Table I
Experimental: as §1, §2, §3, §4, §8, §9
Aspartic class: pepsin (5 μg/ml), cathepsin D (5 μg/ml), renin (5 μg/ml) and Hiv-1 protease (5 μg/ml), in a 50 mM acetate buffer solution (pH=5.5) containing 0.01% Tween 20 (Pierce);
as §6, §12

Papain [1] = biological target: Papain (Carica papaya, UniProt P00784); assay: Inhibition of papain, solid phase tubulin immunoassay, Table I; settings: papain 0.25 μg/ml, 50 mM acetate pH 5.5, 5 mM cysteine, 2 hours at 37° C.; inhibitor 0.01 to 10 μg/ml; read-out: Concentration of inhibitor in the proteolytic solution which determines the 50% inhibition of the protease (converted)
Experimental: as §1, §2, §3, §4, §8, §9
(§13) Cysteine class: papain (0.25 μg/ml) and cathepsin B (10 μg/ml) in a 50 mM acetate buffer solution (pH=5.5) containing 5 mM cysteine.
as §11, §6, §12

Cathepsin G = biological target: T2, Cathepsin G (Homo sapiens, UniProt P08311); assay: Inhibition of cathepsin G, solid phase tubulin immunoassay, Table I
T2 sequence (P08311 21-255): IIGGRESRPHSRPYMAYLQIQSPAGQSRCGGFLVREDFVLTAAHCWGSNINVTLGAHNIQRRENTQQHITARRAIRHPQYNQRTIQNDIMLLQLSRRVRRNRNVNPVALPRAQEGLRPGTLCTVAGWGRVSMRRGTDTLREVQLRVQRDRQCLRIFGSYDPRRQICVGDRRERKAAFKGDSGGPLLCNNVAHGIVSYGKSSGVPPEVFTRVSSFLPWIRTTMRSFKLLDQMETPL
Experimental: as §1, §2, §3, §4, §8, §9, §10, §11, §6, §12

[2] = test system: proteases of the cysteine class; assay: Specificity for protease classes, solid phase tubulin immunoassay; settings: in words
Experimental: (§14) As mentioned above, the first step of the present assay is the contact of the supported tubulin or tubulin-like peptide with a solution containing a proteolytic activity as above described. By contacting solutions containing different proteolytic activities and a same inhibitor substance, it is possible to determine both the specificity of said inhibitor against the selected protease and the percentage of inhibition.
as §4, §8, §9, §13, §11, §6, §7

Trypsin = assay: Inhibition of trypsin, solid phase tubulin immunoassay (YL 1/2 antibody), Table I; settings: trypsin 0.25 μg/ml, 20 mM TRIS pH 7.4, 2 hours at 37° C.; inhibitor 0.01 to 10 μg/ml
Experimental: as §1, §2, §3, §4, §8, §9, §10, §11, §6, §12

Renin = biological target: T3, Renin (Homo sapiens, UniProt P00797); assay: Inhibition of renin, solid phase tubulin immunoassay, Table I
T3 sequence (P00797 67-406): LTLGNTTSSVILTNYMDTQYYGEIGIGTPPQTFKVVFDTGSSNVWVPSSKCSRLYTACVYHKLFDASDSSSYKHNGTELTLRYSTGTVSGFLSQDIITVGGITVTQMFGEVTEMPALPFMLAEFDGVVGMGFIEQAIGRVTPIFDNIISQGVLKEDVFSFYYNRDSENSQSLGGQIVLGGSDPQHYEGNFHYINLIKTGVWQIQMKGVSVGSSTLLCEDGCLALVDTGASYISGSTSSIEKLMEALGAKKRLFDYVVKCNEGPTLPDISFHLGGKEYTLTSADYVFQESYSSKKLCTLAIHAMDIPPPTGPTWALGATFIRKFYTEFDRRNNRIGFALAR
Experimental: as §1, §2, §3, §4, §5, §6, §7

Cathepsin D = Cathepsin D (Homo sapiens, UniProt P07339); assay: Inhibition of cathepsin D, solid phase tubulin immunoassay, Table I
Experimental: as §1, §2, §3, §4, §5, §6, §7

Cathepsin B = Cathepsin B (Homo sapiens, UniProt P07858); assay: Inhibition of cathepsin B, solid phase tubulin immunoassay, Table I
Experimental: as §1, §2, §3, §4, §5, §6, §7

[3] = test system: proteases of the aspartic class; assay: Specificity for protease classes, solid phase tubulin immunoassay; settings: in words
Experimental: as §14, §4, §8, §9
Aspartic class: pepsin (5 μg/ml), cathepsin D (5 μg/ml), renin (5 μg/ml) and Hiv-1 protease (5 μg/ml), in a 50 mM acetate buffer solution (pH=5.5) containing 0.01% Tween 20 (Pierce); […]
as §6, §7

Papain [4] = biological target: T4, Papain (Carica papaya, UniProt P00784); assay: Inhibition of papain, solid phase tubulin immunoassay, Table I; settings: papain 0.25 μg/ml, 50 mM acetate pH 5.5, 5 mM cysteine, 2 hours at 37° C.; inhibitor 0.01 to 10 μg/ml
T4 sequence (P00784 whole entry, looked up): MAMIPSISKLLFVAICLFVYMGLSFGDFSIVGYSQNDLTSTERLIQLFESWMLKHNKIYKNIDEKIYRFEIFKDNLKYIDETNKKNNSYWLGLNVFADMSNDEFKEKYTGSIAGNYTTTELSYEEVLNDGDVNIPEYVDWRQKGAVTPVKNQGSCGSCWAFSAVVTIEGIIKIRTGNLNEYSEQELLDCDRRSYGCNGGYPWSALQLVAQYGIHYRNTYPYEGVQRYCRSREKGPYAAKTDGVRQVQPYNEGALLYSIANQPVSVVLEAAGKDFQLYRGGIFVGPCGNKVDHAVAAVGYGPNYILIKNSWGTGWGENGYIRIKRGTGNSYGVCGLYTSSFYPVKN
Experimental: as §1, §2, §3, §4, §8, §9, §13, §11, §6, §12

[5] = test system: proteases of the serine class; assay: Specificity for protease classes, solid phase tubulin immunoassay; settings: in words
Experimental: as §14, §4, §8, §9
Serine class: trypsin (0.25 μg/ml), subtilisin (0.25 μg/ml), elastase (0.5 μg/ml) and cathepsin G (5 μg/ml), in a 20 mM solution of Tris-hydroxymethyl-aminomethanchloride (TRIS) (pH=7.4); […]
as §6, §7

Sequence of Pepsin (P00791 60-385): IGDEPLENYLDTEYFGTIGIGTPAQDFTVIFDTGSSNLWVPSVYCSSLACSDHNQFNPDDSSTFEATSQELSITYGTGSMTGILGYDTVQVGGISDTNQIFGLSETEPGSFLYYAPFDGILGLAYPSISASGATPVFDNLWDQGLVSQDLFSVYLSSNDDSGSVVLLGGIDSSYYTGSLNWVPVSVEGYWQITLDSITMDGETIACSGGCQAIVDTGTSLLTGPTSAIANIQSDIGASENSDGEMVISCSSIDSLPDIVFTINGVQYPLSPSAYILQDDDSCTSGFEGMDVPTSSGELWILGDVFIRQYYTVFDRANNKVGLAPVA
Sequence of Cathepsin D (P07339 65-412, species assumed): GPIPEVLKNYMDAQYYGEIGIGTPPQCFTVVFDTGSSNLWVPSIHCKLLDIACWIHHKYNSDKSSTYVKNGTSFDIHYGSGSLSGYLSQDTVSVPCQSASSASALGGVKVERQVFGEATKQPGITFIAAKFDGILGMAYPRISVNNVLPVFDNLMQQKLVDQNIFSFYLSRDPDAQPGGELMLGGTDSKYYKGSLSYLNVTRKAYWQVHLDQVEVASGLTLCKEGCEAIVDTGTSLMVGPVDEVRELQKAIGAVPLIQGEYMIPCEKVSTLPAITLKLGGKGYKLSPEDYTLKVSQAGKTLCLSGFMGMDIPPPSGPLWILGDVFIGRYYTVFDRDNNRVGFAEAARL

Compound: CC(=O)N[C@@H](CC(C)C)C(=O)N[C@@H](CC(C)C)C(=O)N[C@H](C=O)CCCNC(=N)N [Leupeptin]
- IC50 (Hiv-1 protease): > 23.4 µM
- Concentration of inhibitor in the proteolytic solution which determines the 50% inhibition of the protease (Subtilisin): n.i. (no inhibition)
- Concentration of inhibitor in the proteolytic solution which determines the 50% inhibition of the protease (Elastase): n.i. (no inhibition)
- IC50 (Pepsin): > 23.4 µM
- IC50 (Papain [1]): 0.117 µM
- IC50 (Cathepsin G): > 23.4 µM
- specific inhibition of proteases of the cysteine class [2]: specific inhibition
- Concentration of inhibitor in the proteolytic solution which determines the 50% inhibition of the protease (Trypsin): n.i. (no inhibition)
- IC50 (Renin): > 23.4 µM
- IC50 (Cathepsin D): > 23.4 µM
- IC50 (Cathepsin B): 5.86 µM

Compound: CC(C)CC(=O)N[C@H](C(=O)N[C@H](C(=O)N[C@@H](CC(C)C)[C@@H](O)CC(=O)N[C@@H](C)C(=O)N[C@@H](CC(C)C)[C@@H](O)CC(=O)O)C(C)C)C(C)C [Pepstatin] (Isovaleryl-VV[Sta]A[Sta]-OH)
- Concentration of inhibitor in the proteolytic solution which determines the 50% inhibition of the protease (Subtilisin): n.i. (no inhibition)
- Concentration of inhibitor in the proteolytic solution which determines the 50% inhibition of the protease (Elastase): n.i. (no inhibition)
- IC50 (Pepsin; 50% inhibition of pepsin, under the test conditions): ~0.02 µM
- IC50 (Papain [1]): > 14.6 µM
- IC50 (Cathepsin G): > 14.6 µM
- Concentration of inhibitor in the proteolytic solution which determines the 50% inhibition of the protease (Trypsin): n.i. (no inhibition)
- specific inhibition of proteases of the aspartic class [3]: specific inhibitor for the proteases of the aspartic class

Compound: α-anti trypsin: inhibitor of the serine class
- Concentration of inhibitor in the proteolytic solution which determines the 50% inhibition of the protease (Hiv-1 protease; Hiv-1 protease 5 μg/ml, 50 mM acetate pH 5.5, 0.01% Tween 20, 2 hours at 37° C., inhibitor 0.01 to 10 μg/ml): n.i. (no inhibition)
- Concentration of inhibitor in the proteolytic solution which determines the 50% inhibition of the protease (Subtilisin): 7.5 µg/mL
- Concentration of inhibitor in the proteolytic solution which determines the 50% inhibition of the protease (Elastase): 1.0 µg/mL
- Concentration of inhibitor in the proteolytic solution which determines the 50% inhibition of the protease (Pepsin; pepsin 5 μg/ml, 50 mM acetate pH 5.5, 0.01% Tween 20, 2 hours at 37° C., inhibitor 0.01 to 10 μg/ml): n.i. (no inhibition)
- Concentration of inhibitor in the proteolytic solution which determines the 50% inhibition of the protease (Papain [4]): n.i. (no inhibition)
- Concentration of inhibitor in the proteolytic solution which determines the 50% inhibition of the protease (Cathepsin G; cathepsin G 5 μg/ml, 20 mM TRIS pH 7.4, 2 hours at 37° C., inhibitor 0.01 to 10 μg/ml): n.i. (no inhibition)
- Concentration of inhibitor in the proteolytic solution which determines the 50% inhibition of the protease (Trypsin): 1.0 µg/mL
- Concentration of inhibitor in the proteolytic solution which determines the 50% inhibition of the protease (Renin; renin 5 μg/ml, 50 mM acetate pH 5.5, 0.01% Tween 20, 2 hours at 37° C., inhibitor 0.01 to 10 μg/ml): n.i. (no inhibition)
- Concentration of inhibitor in the proteolytic solution which determines the 50% inhibition of the protease (Cathepsin D; cathepsin D 5 μg/ml, 50 mM acetate pH 5.5, 0.01% Tween 20, 2 hours at 37° C., inhibitor 0.01 to 10 μg/ml): n.i. (no inhibition)
- specific inhibition of proteases of the serine class [5]: specific inhibition
- Concentration of inhibitor in the proteolytic solution which determines the 50% inhibition of the protease (Cathepsin B; cathepsin B 10 μg/ml, 50 mM acetate pH 5.5, 5 mM cysteine, 2 hours at 37° C., inhibitor 0.01 to 10 μg/ml): n.i. (no inhibition)
